Like-named read-outs stand apart in the source and are kept apart here.
Key:
hPMBC = test: Chymotrypsin-like ProteasomeGlo assay in hPBMC; type: cell-based; conditions: Homo sapiens; read-out: Pglo hPBMC
In short: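 IC50 derived from luminescent chymotrypsin-like proteasome activity (Suc-LLVY-Glo substrate plus luciferin detection reagent). Measured after 105 min compound exposure at 37 °C, 5% CO2. Cells were human B cells purified from buffy-coat PBMC.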

[1] = test system: A549 (human lung carcinoma cell line); test: Glo assay of A549 cells (Table 3; ProteasomeGlo plating scheme); type: cell-based; conditions: Homo sapiens
In short: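 Luminescent read-out of cellular chymotrypsin-like proteasome activity: cells exposed to compound 105 min at 37° C., 5% CO2, then given Suc-LLVY-Glo reagent, shaken 2-5 min and kept dark 10-15 min before reading. Values are IC50 [nM].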

[2] = A549 cells, read-out: PGLo A549

Structure (SMILES) | IC50 (hPMBC) | IC50 [1, 2] | IC50 ([1]; A549, read-out: PGLo A549 [nM])
Cc1ccc2cc1CNC(=O)[C@H](CCc1ccccc1)NC(=O)[C@@H](NC(=O)C1(C)CCOCC1)CC(=O)N1CCCC(CCO2)C1 (stereo partly drawn) [Compound 288, 4-methyl-N-((9S,12S)-5^4-methyl-8,11,14-trioxo-9-phenethyl-4-oxa-7,10-diaza-1(3,1)-piperidina-5(1,3)-benzenacyclotetradecaphane-12-yl)tetrahydro-2H-pyran-4-carboxamide] | < 100 nM | 100 to 500 nM | –
Cc1ccc2cc1CNC(=O)[C@H](CCc1ccccc1)NC(=O)[C@@H](NC(=O)C(C)(C)CO)CC(=O)N1CCCC(CCO2)C1 (stereo partly drawn) [Compound 284, 3-hydroxy-2,2-dimethyl-N-((9S,12S)-5^4-methyl-8,11,14-trioxo-9-phenethyl-4-oxa-7,10-diaza-1(3,1)-piperidina-5(1,3)-benzenacyclotetradecaphane-12-yl)propanamide] | < 100 nM | 100 to 500 nM | –
Cc1ccc2cc1CNC(=O)[C@H](CCc1ccccc1)NC(=O)[C@@H](NC(=O)Cc1ccc(N)cc1)CC(=O)N1CCCC(CCO2)C1 (stereo partly drawn) [Compound 128, 2-(4-aminophenyl)-N-((9S,12S)-5^4-methyl-8,11,14-trioxo-9-phenethyl-4-oxa-7,10-diaza-1(3,1)-piperidina-5(1,3)-benzenacyclotetradecaphane-12-yl)acetamide] | < 100 nM | < 100 nM | –
CC(=O)N[C@H]1CCC(=O)N(C)CCCCOc2ccc(C)c(c2)CNC(=O)[C@H](CCc2ccccc2)NC1=O [Compound 282, N-((11S,14S)-1^4,7-dimethyl-8,12,15-trioxo-1^4-phenethyl-2-oxa-7,13,16-triaza-1(1,3)-benzenacycloheptadecaphane-11-yl)acetamide] | 500 to 1000 nM | > 5000 nM | –
Cc1ccc2cc1CNC(=O)[C@@H](CCc1ccccc1)NC(=O)[C@@H](NC(=O)OCc1ccccc1)CC(=O)N1CCC[C@H](CCO2)C1 [Compound 289, benzyl ((13R,9R,12S)-5^4-methyl-8,11,14-trioxo-9-phenethyl-4-oxa-7,10-diaza-1(3,1)-piperidina-5(1,3)-benzenacyclotetradecaphane-12-yl)carbamate] | 500 to 1000 nM | 500 to 1000 nM | –
Cc1ccc2cc1CNC(=O)[C@H](CCc1ccccc1)NC(=O)[C@@H](NC(=O)OCc1ccccc1)CCCC(=O)N1CCCC(CCO2)C1 (stereo partly drawn) [Compound 195, benzyl ((9S,12S)-5^4-methyl-8,11,16-trioxo-9-phenethyl-4-oxa-7,10-diaza-1(3,1)-piperidina-5(1,3)-benzenacyclohexadecaphane-12-yl)carbamate] | < 100 nM | 100 to 500 nM | –
CNCCOCC(=O)N[C@H]1CC(=O)N2CCCC(CCOc3ccc(C)c(c3)CNC(=O)[C@H](CCc3ccccc3)NC1=O)C2 (stereo partly drawn) [Compound 130, N-((9S,12S)-5^4-methyl-8,11,14-trioxo-9-phenethyl-4-oxa-7,10-diaza-1(3,1)-piperidina-5(1,3)-benzenacyclotetradecaphane-12-yl)-2-(2-(methylamino)ethoxy)acetamide] | < 100 nM | 100 to 500 nM | –
COCCOCCOCCOC(=O)N[C@H]1CC(=O)N2CCCC(CCOc3ccc(C)c(c3)CNC(=O)[C@H](CCc3ccccc3)NC1=O)C2 (stereo partly drawn) [Compound 220, 2-(2-(2-methoxyethoxy)ethoxy)ethyl ((9R,12R)-5^4-methyl-8,11,14-trioxo-9-phenethyl-4-oxa-7,10-diaza-1(3,1)-piperidina-5(1,3)-benzenacyclotetradecaphane-12-yl)carbamate] | < 100 nM | – | < 100 nM
CCC(CC)(CO)C(=O)N[C@H]1CC(=O)N2CCCC(CCOc3ccc(C)c(c3)CNC(=O)[C@H](CCc3ccccc3)NC1=O)C2 (stereo partly drawn) [Compound 285, 2-ethyl-2-(hydroxymethyl)-N-((9S,12S)-5^4-methyl-8,11,14-trioxo-9-phenethyl-4-oxa-7,10-diaza-1(3,1)-piperidina-5(1,3)-benzenacyclotetradecaphane-12-yl)butanamide] | < 100 nM | 100 to 500 nM | –
CC(=O)N[C@H]1CCC(=O)NCCCCOc2ccc(C)c(c2)CNC(=O)[C@H](CCc2ccccc2)NC1=O [Compound 171, N-((11S,14S)-1^4-methyl-8,12,15-trioxo-14-phenethyl-2-oxa-7,13,16-triaza-1(1,3)-benzenacycloheptadecaphane-11-yl)acetamide] | < 100 nM | 500 to 1000 nM | –
COc1ccccc1CC(=O)N[C@H]1CC(=O)N2CCCC(CCOc3ccc(C)c(c3)CNC(=O)[C@H](CCc3ccccc3)NC1=O)C2 (stereo partly drawn) [Compound 84, 2-(2-methoxyphenyl)-N-((9S,12S)-5^4-methyl-8,11,14-trioxo-9-phenethyl-4-oxa-7,10-diaza-1(3,1)-piperidina-5(1,3)-benzenacyclotetradecaphane-12-yl)acetamide] | < 100 nM | < 100 nM | –
Cc1ccc2cc1CNC(=O)[C@@H](CCc1ccccc1)NC(=O)[C@H](NC(=O)OCc1ccccc1)CC(=O)N1CCC[C@H](CCO2)C1 [Compound 290, benzyl ((13R,9R,12R)-5^4-methyl-8,11,14-trioxo-9-phenethyl-4-oxa-7,10-diaza-1(3,1)-piperidina-5(1,3)-benzenacyclotetradecaphane-12-yl)carbamate] | > 5000 nM | > 5000 nM | –
Cc1ccc2cc1CNC(=O)[C@H](C)NC(=O)CCC(=O)N1CCCC(CCO2)C1 (stereo partly drawn) [Compound 78, (9S)-5^4,9-dimethyl-4-oxa-7,10-diaza-1(3,1)-piperidina-5(1,3)-benzenacyclotetradecaphane-8,11,14-trione] | 500 to 1000 nM | > 5000 nM | –
Cc1ccc2cc1CNC(=O)[C@H](CCc1ccccc1)NC(=O)[C@@H](NC(=O)CCc1ccc(Br)cc1)CC(=O)N1CCCC(CCO2)C1 (stereo partly drawn) [Compound 175, 3-(4-bromophenyl)-N-((9S,12S)-5^4-methyl-8,11,14-trioxo-9-phenethyl-4-oxa-7,10-diaza-1(3,1)-piperidina-5(1,3)-benzenacyclotetradecaphane-12-yl)propanamide] | < 100 nM | < 100 nM | –
CC(=O)N[C@H]1CCC(=O)N2CCCC(CCOc3ccc(C)c(c3)CNC(=O)[C@H](CCc3ccccc3)NC1=O)C2 (stereo partly drawn) [Compound 215, N-((9S,12S)-5^4-methyl-8,11,15-trioxo-9-phenethyl-4-oxa-7,10-diaza-1(3,1)-piperidina-5(1,3)-benzenacyclopentadecaphane-12-yl)acetamide] | < 100 nM | 100 to 500 nM | –

Source: US20240415819A1, “MACROCYCLIC COMPOUNDS AS PROTEASOME SUBUNIT BETA TYPE-5 INHIBITORS” (Lead Discovery Center GmbH, priority 2021, published 2024)
